Laboratory results as given in US7713994B2 (Wyeth LLC, priority 2005, dated 2010).
Read-outs that look alike come from different tables or passages of the source.

Experiments:
cyclin B/CDK1 enzyme = biological target: T1, cyclin B/CDK1 enzyme (Homo sapiens, UniProt P06493); test: CDK1 ELISA kinase assay (phospho-Rb ser 795 detection); type: biochemical
T1 construct: purchased New England BioLabs; host or cells: Sf9 insect cells, recombinant baculovirus
Procedure, shortened: (§1)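 Wells were coated overnight with GST-Rb C-terminal fragment, then blocked. Compound (10 ug/ml final) and cyclin/CDK enzyme from baculovirus-infected Sf9 cells with 200 μM ATP reacted 1 h at 30° C. Ser795 phosphorylation was detected by ELISA at 450 nm.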

MCF-7 = test: Cytotoxicity assay (SRB), MCF-7; type: cell-based; conditions: MCF-7 cells, SRB, read-out: In Vitro Cellular Activity IC50 MCF-7
Procedure, shortened: (§2)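 Percentage survival is derived from SRB absorbance (540 nm) versus untreated cells. Exposures were 3 days, except 6 days for BT474, at 37 °C and 7% CO2.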

cyclin E/CDK2 enzyme = biological target: T2, cyclin E/CDK2 enzyme (Homo sapiens, UniProt P24941); test: CDK2 ELISA kinase assay (phospho-Rb ser 795 detection); type: biochemical
T2 construct: made in house; host or cells: Sf9 insect cells, recombinant baculovirus
Procedure, shortened: as §1

LoVo = test: Cytotoxicity assay (SRB), LoVo; type: cell-based; conditions: LoVo cells, SRB, read-out: In Vitro Cellular Activity IC50 LOVO
Procedure, shortened: as §2

BT474 = test: Cytotoxicity assay (SRB), BT474; type: cell-based
Procedure, shortened: as §2

cyclin D1/cdk 4 enzyme = biological target: T3, cyclin D1/cdk 4 enzyme (Homo sapiens, UniProt P11802); test: CDK4 ELISA kinase assay (phospho-Rb ser 795 detection); type: biochemical
T3 construct: made in house; host or cells: Sf9 insect cells, recombinant baculovirus
Procedure, shortened: as §1

HCT-116 = test: Cytotoxicity assay (SRB), HCT-116; type: cell-based; conditions: HCT116 cells, SRB, read-out: In Vitro Cellular Activity IC50 HCT116
Procedure, shortened: as §2

[1] = In Vitro Enzyme Assay, cyclin B/CDK1, read-out: CDK1 IC50
[2] = Homo sapiens, MCF7, 72 h, 3 days
[3] = In Vitro Enzyme Assay, cyclin E/CDK2, read-out: CDK2 IC50
[4] = Homo sapiens, LoVo, 72 h, 3 days
[5] = Homo sapiens, BT-474, 144 h, BT474 cells, 6 days, SRB; read-out: In Vitro Cellular Activity IC50 BT474
[6] = In Vitro Enzyme Assay, cyclin D1/cdk 4, read-out: CDK4 IC50
[7] = Homo sapiens, HCT-116, 72 h, 3 days
[8] = In Vitro Enzyme Assays, read-out: CDK1 IC50
[9] = In Vitro Enzyme Assays, read-out: CDK2 IC50
[10] = In Vitro Enzyme Assays, 200 μM ATP, read-out: CDK4 IC50
[11] = Homo sapiens, MCF7, 72 h, three days
[12] = Homo sapiens, LoVo, 72 h, three days
[13] = Homo sapiens, BT-474, 144 h, BT474 cells, SRB, 6 days; read-out: In Vitro Cellular Activity IC50 BT474
[14] = Homo sapiens, HCT-116, 72 h, three days

T3 sequence (P11802 whole entry, species assumed): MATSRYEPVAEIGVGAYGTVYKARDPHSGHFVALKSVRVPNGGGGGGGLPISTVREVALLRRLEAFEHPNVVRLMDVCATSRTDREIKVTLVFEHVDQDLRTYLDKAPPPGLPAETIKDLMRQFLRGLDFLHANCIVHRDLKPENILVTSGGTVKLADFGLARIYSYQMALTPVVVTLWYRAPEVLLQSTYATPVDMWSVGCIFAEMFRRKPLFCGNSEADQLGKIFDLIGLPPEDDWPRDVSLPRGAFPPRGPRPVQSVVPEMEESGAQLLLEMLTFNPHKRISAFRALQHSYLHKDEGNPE
T3 sequence (P24385 whole entry partner, species assumed): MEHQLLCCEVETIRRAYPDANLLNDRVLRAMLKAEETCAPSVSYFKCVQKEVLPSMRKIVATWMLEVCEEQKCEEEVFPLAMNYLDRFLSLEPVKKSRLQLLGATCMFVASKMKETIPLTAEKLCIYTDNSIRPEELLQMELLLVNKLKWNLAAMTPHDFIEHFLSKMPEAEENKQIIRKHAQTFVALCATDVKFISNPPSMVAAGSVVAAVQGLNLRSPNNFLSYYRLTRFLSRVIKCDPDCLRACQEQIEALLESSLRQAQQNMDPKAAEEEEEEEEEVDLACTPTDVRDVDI
T1 sequence (P06493 whole entry): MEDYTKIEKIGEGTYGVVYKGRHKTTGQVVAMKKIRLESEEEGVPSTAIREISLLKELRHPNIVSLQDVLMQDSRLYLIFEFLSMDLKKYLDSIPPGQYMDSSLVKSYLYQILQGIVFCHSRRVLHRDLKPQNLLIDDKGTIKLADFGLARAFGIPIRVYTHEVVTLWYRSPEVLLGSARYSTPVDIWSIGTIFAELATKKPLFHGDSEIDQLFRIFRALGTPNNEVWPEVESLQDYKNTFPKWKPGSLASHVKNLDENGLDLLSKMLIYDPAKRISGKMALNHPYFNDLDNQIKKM
T1 sequence (P14635 whole entry partner): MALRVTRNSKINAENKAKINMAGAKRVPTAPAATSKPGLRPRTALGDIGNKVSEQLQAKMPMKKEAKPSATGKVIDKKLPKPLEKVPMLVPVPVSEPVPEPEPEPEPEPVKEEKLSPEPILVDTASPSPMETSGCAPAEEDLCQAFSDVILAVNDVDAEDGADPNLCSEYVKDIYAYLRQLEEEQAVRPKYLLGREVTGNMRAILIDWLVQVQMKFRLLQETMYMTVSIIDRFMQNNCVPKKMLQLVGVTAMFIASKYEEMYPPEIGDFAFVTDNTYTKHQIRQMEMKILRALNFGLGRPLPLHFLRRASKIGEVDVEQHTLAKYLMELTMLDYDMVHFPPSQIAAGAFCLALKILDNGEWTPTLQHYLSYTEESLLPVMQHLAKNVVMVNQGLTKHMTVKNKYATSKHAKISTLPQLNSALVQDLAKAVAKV

| Compound | IC50 (cyclin B/CDK1 enzyme; [1]) [µM] | IC50 (MCF-7; [2]) [µM] | IC50 (cyclin E/CDK2 enzyme; [3]) [µM] | IC50 (LoVo; [4]) [µM] | IC50 (BT474; [5]) [µM] | IC50 (cyclin D1/cdk 4 enzyme; [6]) [µM] | IC50 (HCT-116; [7]) [µM] | IC50 (cyclin B/CDK1 enzyme; [8]) [µM] | IC50 (cyclin E/CDK2 enzyme; [9]) [µM] | IC50 (cyclin D1/cdk 4 enzyme; [10]) [µM] | further results |
| --- | --- | --- | --- | --- | --- | --- | --- | --- | --- | --- | --- |
| O=C1NC(=O)c2ccc(-c3ccc4ccccc4c3)cc2C1=CNCc1ccc(O)c(O)c1 [Example 641, 4-[(3,4-Dihydroxy-benzylamino)-methylene]-6-naphthalen-2-yl-4H-isoquinoline-1,3-dione] | > 50 | 9.6 | > 50 | 9.4 | 19.7 | 1.9 | 10.5 |  |  |  |  |
| CN1CCN(c2ccc(NC=C3C(=O)NC(=O)c4ccc(-c5ccc6[nH]ccc6c5)cc43)cc2)CC1 [Example 671, 6-(1H-Indol-5-yl)-4-{[4-(4-methyl-piperazin-1-yl)-phenylamino]-methylene}-4H-isoquinoline-1,3-dione] | 11.8 | 4.4 | 38 | 4.1 | 2.8 | 2 | 2.3 |  |  |  |  |
| O=C1NC(=O)c2ccc(-c3ccccc3F)cc2C1=CNCc1ccc(O)c(O)c1 [Example 769, 4-[(3,4-Dihydroxy-benzylamino)-methylene]-6-(2-fluoro-phenyl)-4H-isoquinoline-3,3-dione] | 14.7 | 17.9 | 3.9 | 15.5 | 17.9 | 0.03 | 13.4 |  |  |  |  |
| PEG5000thio-acetic acid 5-{[(6-bromo-1,3-dioxo-2,3-dihydro-1H-isoquinolin-4-ylidenemethyl)-amino]-methyl}-2-propoxy-phenyl ester [Example 228] |  |  |  |  |  |  |  | > 50 | > 50 | ~1.5 | IC50 (MCF-7; three days): ~8.6 µM; IC50 (LoVo; three days): ~2.5 µM; IC50 (BT474; BT474 cells, SRB, 6 days; read-out: In Vitro Cellular Activity IC50 BT474): ~1.2 µM; IC50 (HCT-116; three days): ~2.1 µM |
| 6-Benzofuran-2-yl-4-[(3,4-dihydroxy-benzylamino)-methylene]-4H-isoquinoline-1,3-dione [Example 643] | > 50 |  | > 50 |  |  | 3.5 |  |  |  |  | IC50 (MCF-7; 3 days): 9.2 µM; IC50 (LoVo; 3 days): 11.7 µM; IC50 (BT474; BT474 cells, 6 days, SRB; read-out: In Vitro Cellular Activity IC50 BT474): 13.4 µM; IC50 (HCT-116; 3 days): 14.9 µM |
| C[C@@H]1CN(c2ccc(N/C=C3\C(=O)NC(=O)c4ccc(-c5ccoc5)cc43)cc2)C[C@H](C)N1 [Example 207, (4Z)-4-({[4-(3,5-Dimethylpiperazin-1-yl)phenyl]amino}methylene)-6-(3-furyl)iso-quinoline-1,3(2H,4H)-dione] |  |  |  |  |  |  |  | > 50 | > 50 | 0.2 | IC50 (MCF-7; [11]): 0.69 µM; IC50 (LoVo; [12]): 2.2 µM; IC50 (BT474; [13]): 0.79 µM; IC50 (HCT-116; [14]): 1.1 µM |
| CN1Cc2ccc(N/C=C3\C(=O)NC(=O)c4ccc(Br)cc43)cc2C1 [Example 868, (4Z)-6-Bromo-4-{[(2-methyl-2,3-dihydro-1H-isoindol-5-yl)amino]methylene}isoquinoline-1,3(2H,4H)-dione] |  | 5.5 |  | 3.9 | 6.8 |  | 2.5 |  |  |  | IC50 (cyclin B/CDK1 enzyme; In Vitro Enzyme Assay, read-out: CDK1 IC50): 20.7 µM; IC50 (cyclin E/CDK2 enzyme; In Vitro Enzyme Assay, read-out: CDK2 IC50): 2.5 µM; IC50 (cyclin D1/cdk 4 enzyme; In Vitro Enzyme Assay, read-out: CDK4 IC50): 1.2 µM |
| CN1CCN(c2ccc(NC=C3C(=O)NC(=O)c4ccc(C=Cc5ccccn5)cc43)cc2)CC1 [Example 675, 4-{[4-(4-Methyl-piperazin-1-yl)-phenylamino]-methylene}-6-(2-pyridin-2-yl-vinyl)-4H-isoquinoline-1,3-dione] | > 50 | 7.2 | > 50 | 6.8 | 7.7 | 1.77 | 2.3 |  |  |  |  |
| CN1CCN(c2ccc(NC=C3C(=O)NC(=O)c4ccc(-c5ccc(C(=O)O)cc5)cc43)cc2)CC1 [Example 685, 4-(4-{[4-(4-Methyl-piperazin-1-yl)-phenylamino]-methylene}-1,3-dioxo-1,2,3,4-tetrahydro-isoquinolin-6-yl)-benzoic acid] | > 50 | 22.1 | > 50 | 25 | 36.9 | 1.51 | 18.4 |  |  |  |  |
| O=C1NC(=O)c2ccccc2/C1=C/Nc1ccc(CN2CCCC2)cc1 [Example 576, 4-[(4-Pyrrolidin-1-ylmethyl-phenylamino)-methylene]-4H-isoquinoline-1,3-dione] | 13.8 | 7.6 | 39.8 | 19.1 | 7.4 | 7.5 | 6.3 |  |  |  |  |
| CCN(CC)Cc1ccc(NC=C2C(=O)NC(=O)c3ccccc32)cc1 [Example 574, 4-[(4-Diethylaminomethyl-phenylamino)-methylene]-4H-isoquinoline-1,3-dione] | 18.5 | 14 | 30.4 | 29.8 | 10.6 | 5.5 | 10.3 |  |  |  |  |
| O=C1NC(=O)c2ccc(-c3cccc([N+](=O)[O-])c3)cc2C1=CNCc1ccc(O)c(O)c1 [Example 820, 4-[(3,4-Dihydroxy-benzylamino)-methylene]-6-(3-nitro-phenyl)-4H-isoquinoline-1,3-dione] | > 50 | > 50 | 27.1 | 47.9 | > 50 | 2.1 | 41.5 |  |  |  |  |
| O=C1NC(=O)c2ccc(-c3ccco3)cc2/C1=C/NCc1cc(O)ccc1I [Example 503, 6-Furan-2-yl-4-[(5-hydroxy-2-iodo-benzylamino)-methylene]-4H-isoquinoline-1,3-dione] | > 50 | 1 | 34.7 | 5.1 | 1.6 | 0.02 | 5.2 |  |  |  |  |
| CCCN1CCN(c2ccc(N/C=C3\C(=O)NC(=O)c4ccc(I)cc43)cc2)CC1 [Example 388, (4Z)-6-Iodo-4-({[4-(4-propylpiperazin-1-yl)phenyl]amino}methylene)isoquinoline-1,3(2H,4H)-dione] |  |  |  |  |  |  |  | > 50 | > 50 | 2 | IC50 (MCF-7; [11]): 3.1 µM; IC50 (LoVo; [12]): 5.5 µM; IC50 (BT474; [13]): 3.9 µM; IC50 (HCT-116; [14]): 2.7 µM |
| CCC1CCCN1Cc1ccc(N/C=C2\C(=O)NC(=O)c3ccc(I)cc32)cc1 (stereo not drawn) [Example 436, 4-{[4-(2-Ethyl-pyrrolidin-1-ylmethyl)-phenylamino]-methylene}-6-iodo-4H-isoquinoline-1,3-dione] |  | 1.5 |  | 2.3 | 0.4 |  | 2.5 | > 50 | > 50 | 0.26 |  |
| CCC(=O)Nc1ccc(CN/C=C2\C(=O)NC(=O)c3ccc(I)cc32)cc1O [Example 341, N-[2-Hydroxy-4-({[(Z)-(6-iodo-1,3-dioxo-2,3-dihydroisoquinolin-4(1H)-ylidene)methyl]amino}methyl)phenyl]propanamide] |  |  |  |  |  |  |  | 3.1 | 0.59 | 0.02 | IC50 (MCF-7; [11]): 2.5 µM; IC50 (LoVo; [12]): 0.95 µM; IC50 (BT474; [13]): 0.93 µM; IC50 (HCT-116; [14]): 1 µM |
| COc1ccc(CN/C=C2\C(=O)NC(=O)c3ccc(-c4ccsc4)cc32)cc1O [Example 88, (4Z)-4-{[(3-Hydroxy-4-methoxybenzyl)amino]methylene}-6-thien-3-ylisoquinoline-1,3(2H,4H)-dione] |  |  |  |  |  |  |  | 23.3 | 18.3 | 0.002 | IC50 (MCF-7; [11]): 9.1 µM; IC50 (LoVo; [12]): 2.4 µM; IC50 (BT474; [13]): 6 µM; IC50 (HCT-116; [14]): 3.4 µM |
| COc1ccc(-c2ccc3c(c2)/C(=C/Nc2ccc(N4CCN(C)CC4)cc2)C(=O)NC3=O)cc1 [Example 114, (4Z)-6-(4-methoxyphenyl)-4-({[4-(4-methylpiperazin-1-yl)phenyl]amino}methylene)-isoquinoline-1,3(2H,4H)-dione] |  |  |  |  |  |  |  | > 50 | > 50 | 7.4 | IC50 (MCF-7; [11]): 6.3 µM; IC50 (LoVo; [12]): 6.5 µM; IC50 (BT474; [13]): 5 µM; IC50 (HCT-116; [14]): 1.9 µM |
